Earlier results on 1 compound are cited in US20250205258A1 (priority 2022, published 2025).

Structures are written as SMILES.

One data set relates to neuroblastoma cells U87. Conditions: through both apoptosis and necrosis; cited from earlier work.
The test system of data set [1] is liver cancer stem cell markers CD133, CD44, and ESA. Particulars: cited from earlier work.
The test system of a further data set is melanoma A375 cells. Conditions: concentration- and time-dependent; cited from earlier work.
The subject of data set [2] is ovarian cancer cells SK—OV-3. Conditions: concentration- and time-dependent, EGFR/AKT/ERK signaling pathway; cited from earlier work.
The next data set concerns STAT3 signaling pathway. Particulars: by inhibiting the STAT3 signaling pathway; cited from earlier work.

In the case of `C[C@]12CC[C@H](O)C[C@H]1CC[C@@H]1[C@@H]2CC[C@]2(C)[C@@H](c3ccc(=O)oc3)CC[C@]12O` [bufalin, Bufalin], in the data set with neuroblastoma cells U87, the “death of neuroblastoma cells U87” value was “induces the death”. Also, the “expression of liver cancer stem cell markers CD133, CD44, and ESA” value in data set [1] is reported as “significantly inhibit”. In the data set on melanoma A375 cells, the “proliferation of melanoma A375 cells” value was “inhibits the proliferation”. Besides, the “proliferation of ovarian cancer cells SK—OV-3” value in data set [2] is recorded as “inhibit the proliferation”. In addition, the tumor microenvironment-mediated angiogenesis entry in the data set on STAT3 signaling pathway is recorded as “suppress tumor microenvironment-mediated angiogenesis”.
